Columns and labels:
Type in all cases: biochemical
cathepsin B = cathepsin B (Homo sapiens, UniProt P07858); assay: enzyme selectivity assay with peptide substrate
mouse cathepsin S = mouse cathepsin S (Mus musculus, UniProt O70370); assay: fluorimetric hydrolysis of Z-Leu-Arg-AMC by purified enzyme, pH […]
cathepsin S = cathepsin S (Homo sapiens, UniProt P25774); assay: as above
Sequence of cathepsin S (P25774 115-331): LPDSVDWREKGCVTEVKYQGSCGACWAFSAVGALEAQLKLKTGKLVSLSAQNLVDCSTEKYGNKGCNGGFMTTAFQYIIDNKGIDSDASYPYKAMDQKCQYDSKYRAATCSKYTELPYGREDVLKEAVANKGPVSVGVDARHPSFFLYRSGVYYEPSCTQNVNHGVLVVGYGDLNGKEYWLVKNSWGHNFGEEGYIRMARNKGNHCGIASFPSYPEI

- Ki (cathepsin B): 700 nM
- Ki (mouse cathepsin S): 0.69 nM
- Ki (cathepsin S): 0.29 nM
Substance: VBY-999

— publication PMC4249762 (Nature cell biology, 2014)
